Measured values published in patent US20020026051A1, “Dithiepino [6,5-b]pyridines, and related compositions and methods” (priority 1999, published 2002).

How the values were obtained:
calcium channel = biological target: T1, calcium channel (Oryctolagus cuniculus, UniProt P15381); experiment: Assay for Inhibition of Nitrendipine Binding (3H-nitrendipine, heart membranes); conditions: 3H-nitrendipine displacement, rabbit heart membranes
T1 construct: from tissue; host or cells: rabbit heart membrane preparation
Experimental: Female, New Zealand white rabbits (1-2 kg) are sacrificed by cervical dislocation, and the heart is immediately removed, cleaned and chopped into small pieces. The tissue is homogenized in 5× times volume of 0.05M Hepes buffer, pH 7.4. The homogenate is centrifuged at 4000 g for 10 minutes, and the supernatant is re-centrifuged at 42,000×g for 90 minutes. The resulting membrane pellet is resuspended (0.7 ml/g weight) in 0.05M Hepes, pH 7.4 and stored at […] until used. Each tube of the binding assay contains ^3H-nitrendipine (0.05-0.50 nM), buffer, membranes (0.10 ml), and test compound in a total volume of 1.0 ml. After 90 minutes at 4° C., the bound nitrendipine is separated from the unbound by filtration on Whatman GF/C filters. After rinsing, the filters are dried and counted in a liquid scintillation counter.
Non-specific binding of ^3H-nitrendipine (that amount bound in the presence of excess unlabelled nitrendipine) is subtracted from the total bound to obtain specifically bound radiolabeled nitrendipine. The amount of specifically bound nitrendipine in the presence of a test compound is compared to that amount bound in the absence of a compound. A percent displacement (or inhibition) can then be calculated.

trachealis muscle tissue = experiment: Test for Inhibition of Calcium-Dependent Smooth Muscle Contraction (trachea); type: cell-based; conditions: Canis lupus familiaris; dog tracheal rings, 50 mM KCl contraction
Experimental: The trachea and the aorta from dogs sacrificed by excess KCl injection are stored overnight at 4° C. in oxygenated Krebs-Henseleit buffer. Tracheal rings, one cartilage segment wide (5-10 mm), are cut starting from the bronchial end. Rings of aorta tissue of the same width are also prepared. After cutting the cartilage, the trachealis muscle tissue and the aorta tissue are suspended in oxygenated Krebs-Henseleit buffer at 37° C. in a 25 ml tissue bath. After a 60-minute equilibration period, the tissues are challenged with 10 μM carbachol. After 5 minutes, the tissues are rinsed and allowed to rest 50 minutes. The tissues are then challenged with 50 mM KCl and, after 30 minutes, the contractions are quantitated. The tissues are then rinsed and re-equilibrated for 50 minutes. Test compounds are then added for 10 minutes, and the tissue is rechallenged with 50 mM KCl. After 30 minutes, the contraction is recorded. A percent inhibition of smooth muscle contraction can then be calculated.

T1 sequence (P15381 whole entry, other chains not shown): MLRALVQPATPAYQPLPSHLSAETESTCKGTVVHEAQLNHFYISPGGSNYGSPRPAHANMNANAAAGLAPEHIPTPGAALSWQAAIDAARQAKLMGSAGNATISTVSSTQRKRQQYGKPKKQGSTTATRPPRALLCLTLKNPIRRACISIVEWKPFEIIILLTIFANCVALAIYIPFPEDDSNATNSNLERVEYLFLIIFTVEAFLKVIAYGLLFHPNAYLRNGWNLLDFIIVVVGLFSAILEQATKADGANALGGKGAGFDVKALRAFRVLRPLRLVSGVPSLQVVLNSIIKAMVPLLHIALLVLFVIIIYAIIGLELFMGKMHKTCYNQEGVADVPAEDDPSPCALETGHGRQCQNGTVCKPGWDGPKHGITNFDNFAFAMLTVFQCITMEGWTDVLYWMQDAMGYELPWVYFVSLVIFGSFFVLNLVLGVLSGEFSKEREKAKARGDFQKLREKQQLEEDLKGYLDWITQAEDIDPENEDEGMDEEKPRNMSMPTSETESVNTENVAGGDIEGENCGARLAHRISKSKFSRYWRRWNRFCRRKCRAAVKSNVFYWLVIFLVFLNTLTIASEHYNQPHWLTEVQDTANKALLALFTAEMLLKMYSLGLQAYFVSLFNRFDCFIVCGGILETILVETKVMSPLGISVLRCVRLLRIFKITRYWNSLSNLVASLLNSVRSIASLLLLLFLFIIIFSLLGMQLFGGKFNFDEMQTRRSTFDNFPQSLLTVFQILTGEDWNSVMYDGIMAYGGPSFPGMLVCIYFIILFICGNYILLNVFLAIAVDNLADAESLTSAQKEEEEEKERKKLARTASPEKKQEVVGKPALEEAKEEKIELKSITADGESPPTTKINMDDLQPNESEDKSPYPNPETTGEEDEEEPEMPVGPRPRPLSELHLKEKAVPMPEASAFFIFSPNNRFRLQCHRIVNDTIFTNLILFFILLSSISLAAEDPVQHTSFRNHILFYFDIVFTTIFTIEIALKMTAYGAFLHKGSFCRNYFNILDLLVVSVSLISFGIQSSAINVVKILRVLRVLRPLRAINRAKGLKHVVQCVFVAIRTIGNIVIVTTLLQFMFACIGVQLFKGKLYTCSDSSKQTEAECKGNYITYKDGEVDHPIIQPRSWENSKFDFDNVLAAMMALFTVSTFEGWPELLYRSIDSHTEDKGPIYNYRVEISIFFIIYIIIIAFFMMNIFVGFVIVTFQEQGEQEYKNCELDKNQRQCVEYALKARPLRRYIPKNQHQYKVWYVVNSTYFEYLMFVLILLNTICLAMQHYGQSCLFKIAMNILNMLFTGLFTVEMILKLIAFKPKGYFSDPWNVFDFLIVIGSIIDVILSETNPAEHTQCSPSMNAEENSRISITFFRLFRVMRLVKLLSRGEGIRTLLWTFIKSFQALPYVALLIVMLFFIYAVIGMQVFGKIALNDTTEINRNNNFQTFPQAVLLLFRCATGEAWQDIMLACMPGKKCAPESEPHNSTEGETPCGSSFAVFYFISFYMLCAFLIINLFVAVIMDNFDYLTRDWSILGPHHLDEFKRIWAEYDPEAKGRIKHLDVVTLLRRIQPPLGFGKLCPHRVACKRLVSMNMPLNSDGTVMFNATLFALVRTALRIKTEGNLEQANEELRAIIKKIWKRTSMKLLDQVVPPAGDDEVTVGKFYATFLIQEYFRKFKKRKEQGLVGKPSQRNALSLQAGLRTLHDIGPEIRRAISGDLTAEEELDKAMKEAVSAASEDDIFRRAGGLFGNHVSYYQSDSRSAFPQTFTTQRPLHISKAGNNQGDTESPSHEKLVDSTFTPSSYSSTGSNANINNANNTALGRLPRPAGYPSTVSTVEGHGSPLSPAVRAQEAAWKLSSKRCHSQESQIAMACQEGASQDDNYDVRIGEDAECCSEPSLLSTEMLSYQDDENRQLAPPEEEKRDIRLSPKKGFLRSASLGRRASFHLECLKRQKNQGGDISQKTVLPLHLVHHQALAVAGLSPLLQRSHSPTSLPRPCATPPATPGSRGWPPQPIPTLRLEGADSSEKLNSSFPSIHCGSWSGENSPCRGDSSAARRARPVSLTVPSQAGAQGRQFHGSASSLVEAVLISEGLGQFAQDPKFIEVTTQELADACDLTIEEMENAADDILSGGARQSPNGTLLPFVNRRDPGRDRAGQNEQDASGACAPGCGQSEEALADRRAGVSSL
T1 sequence (P13806 27-960 partner limits assumed, other chains not shown): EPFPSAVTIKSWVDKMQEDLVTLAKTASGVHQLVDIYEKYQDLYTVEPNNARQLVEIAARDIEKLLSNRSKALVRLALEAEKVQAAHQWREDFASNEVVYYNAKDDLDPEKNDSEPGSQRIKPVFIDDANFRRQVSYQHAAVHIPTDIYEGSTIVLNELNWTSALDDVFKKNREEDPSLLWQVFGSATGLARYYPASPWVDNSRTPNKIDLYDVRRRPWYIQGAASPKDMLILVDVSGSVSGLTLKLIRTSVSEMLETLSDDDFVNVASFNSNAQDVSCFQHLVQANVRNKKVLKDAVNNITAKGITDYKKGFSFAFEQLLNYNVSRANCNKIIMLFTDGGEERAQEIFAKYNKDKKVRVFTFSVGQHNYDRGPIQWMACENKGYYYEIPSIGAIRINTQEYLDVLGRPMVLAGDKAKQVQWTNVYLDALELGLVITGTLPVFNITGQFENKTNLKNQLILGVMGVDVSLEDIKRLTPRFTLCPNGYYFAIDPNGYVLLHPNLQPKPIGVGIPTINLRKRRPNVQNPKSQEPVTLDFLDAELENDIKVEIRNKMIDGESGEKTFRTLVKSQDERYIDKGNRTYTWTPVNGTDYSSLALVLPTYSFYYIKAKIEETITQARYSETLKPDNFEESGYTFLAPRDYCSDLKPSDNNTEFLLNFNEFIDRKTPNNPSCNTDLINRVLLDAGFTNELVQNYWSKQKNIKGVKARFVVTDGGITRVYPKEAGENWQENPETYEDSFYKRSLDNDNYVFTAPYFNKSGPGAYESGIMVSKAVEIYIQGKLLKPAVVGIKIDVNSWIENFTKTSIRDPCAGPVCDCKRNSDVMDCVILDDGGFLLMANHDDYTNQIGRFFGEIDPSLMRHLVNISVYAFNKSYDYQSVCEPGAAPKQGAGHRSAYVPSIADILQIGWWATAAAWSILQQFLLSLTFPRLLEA
T1 sequence (P13806 961-1106 partner limits assumed, other chains not shown): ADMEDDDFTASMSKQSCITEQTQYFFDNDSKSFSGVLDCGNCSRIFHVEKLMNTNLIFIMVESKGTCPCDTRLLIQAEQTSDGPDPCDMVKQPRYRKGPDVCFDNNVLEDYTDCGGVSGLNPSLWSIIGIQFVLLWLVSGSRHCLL

IC50 (calcium channel; Tables 1-5) [nM]	IC50 (trachealis muscle tissue) [nM]	IC50 (calcium channel; Tables 6-7) [nM]	SMILES
49	6200	–	CC1=C(C(=O)OCCN(C)Cc2ccccc2)C(c2c(F)c(F)c(F)c(F)c2F)C2=C(CS(=O)(=O)CCCS2(=O)=O)N1 (centres unmarked) [Compound 27, 2H,6H-1,5-Dithiocino[3,2-b]pyridine-9-carboxylic acid, 3,4,7,10-tetrahydro-8-methyl-10-(pentafluorophenyl)-2-[methyl(phenylmethyl)amino]ethyl ester 1,1,5,5-tetraoxide]
–	–	898	CC(=O)OCCOC(=O)C1=C(C)NC2=C(C1c1c(F)cccc1Cl)S(=O)(=O)CCS(=O)(=O)C2 (centres unmarked) [Compound 80]
74	650	–	CC1=C(C(=O)OCCN(C)Cc2ccccc2)C(c2c(F)cccc2Cl)C2=C(CS(=O)(=O)CCS2(=O)=O)N1 (centres unmarked) [Compound 1, 5H-1,4-Dithiepino[6,5-b]pyridine-8-carboxylic acid, 9-(2-chloro-6-fluorophenyl)-2,3,6,9-tetrahydro-7-methyl-2-[methyl(phenylmethyl)amino]ethyl ester 1,1,4,4-tetraoxide]
–	–	356	CC1=C(C(=O)OCC(=O)OC(C)(C)C)C(c2c(F)cccc2Cl)C2=C(CS(=O)(=O)CCS2(=O)=O)N1 (centres unmarked) [Compound 69, 7-methyl-9-[2-fluoro-6-chlorophenyl]-2,3,6,9-tetrahydro-1,1,4,4-tetraoxide 5H-1,4-Dithiepino[6,5-b]pyridine-8-carboxylic acid 2-(1,1-dimethylethyloxy)-2-oxoethyl ester]
20	–	–	COC(=O)C1=C(C)NC2=C(C1c1cccc(C(F)(F)F)c1F)S(=O)(=O)CCS(=O)(=O)C2 (centres unmarked) [Compound 17, 5H-1,4-Dithiepino[6,5-b]pyridine-8-carboxylic acid, 9-[2-fluoro-3-(trifluoromethyl)phenyl]-2,3,6,9-tetrahydro-7-methyl-methyl ester 1,1,4,4-tetraoxide]
–	–	38	CC1=C(C(=O)OCCOC(=O)C2CCCCCC2)C(c2c(F)cccc2Cl)C2=C(CS(=O)(=O)CCS2(=O)=O)N1 (centres unmarked) [Compound 39, 5H-[1,4]dithiepino[6,5-b]pyridine-8-carboxylic acid, 9-(2-chloro-6-fluorophenyl)-2,3,6,9-tetrahydro-7-methyl-, 2-[(cycloheptylcarbonyl)oxy]ethyl ester, 1,1,4,4-tetraoxide]
–	–	2120	CC(=O)OCCCOC(=O)C1=C(C)NC2=C(C1c1c(F)cccc1Cl)S(=O)(=O)CCS(=O)(=O)C2 (centres unmarked) [Compound 86]
–	–	41	COc1cccc(C(=O)OCCOC(=O)C2=C(C)NC3=C(C2c2c(F)cccc2Cl)S(=O)(=O)CCS(=O)(=O)C3)c1 (centres unmarked) [Compound 40]
–	–	100	CC1=C(C(=O)OCCOC(=O)C2CCCCC2)C(c2c(F)cccc2Cl)C2=C(CS(=O)(=O)CCS2(=O)=O)N1 (centres unmarked) [Compound 55]
–	–	51000	CC1=C(C(=O)OCCOC(=O)C(N)CCCCN)C(c2c(F)cccc2Cl)C2=C(CS(=O)(=O)CCS2(=O)=O)N1 (centres unmarked) [Compound 96]
45	–	–	CC1=C(C(=O)OCCN(C)Cc2ccccc2)C(c2ccccc2Cl)C2=C(CS(=O)(=O)CCS2(=O)=O)N1 (centres unmarked) [Compound 6, 5H-1,4-Dithiepino[6,5-b]pyridine-8-carboxylic acid, 9-(2-chlorophenyl)-2,3,6,9-tetrahydro-7-methyl-2-[methyl(phenylmethyl)amino]ethyl ester 1,1,4,4-tetraoxide]
–	–	40	CC1=C(C(=O)OCCOC(=O)c2ccc(OC(C)C)cc2)C(c2c(F)cccc2Cl)C2=C(CS(=O)(=O)CCCS2(=O)=O)N1 (centres unmarked) [Compound 99, 2H,6H-[1,5]dithiocino[3,2-b]pyridine-9-carboxylic acid, 10-(2-chloro-6-fluorophenyl)-3,4,7,10-tetrahydro-8-methyl-, 2-[[4-(1-methylethoxy)benzoyl]oxy]ethyl ester, 1,1,5,5-tetraoxide]
–	–	420	CC1=C(C(=O)OCC(=O)OCCN(C)Cc2ccccc2)C(c2c(F)cccc2Cl)C2=C(CS(=O)(=O)CCS2(=O)=O)N1 (centres unmarked) [Compound 74, 7-methyl-9-[2-fluoro-6-chlorophenyl]-2,3,6,9-tetrahydro-1,1,4,4-tetraoxide 5H-1,4-Dithiepino[6,5-b]pyridine-8-carboxylic acid carboxy-2-(1-N-methylbenzylamine)ethyl ester]
–	–	33	CC1=C(C(=O)OCCOC(=O)C(C)Cc2ccccc2)C(c2c(F)cccc2Cl)C2=C(CS(=O)(=O)CCS2(=O)=O)N1 (centres unmarked) [Compound 37]
–	–	768	CC1=C(C(=O)OCCNC(=O)OC(C)(C)C)C(c2c(F)cccc2Cl)C2=C(CS(=O)(=O)CCS2(=O)=O)N1 (centres unmarked) [Compound 79, 5H-[1,4]dithiepino[6,5-b]pyridine-8-carboxylic acid, 9-(2-chloro-6-fluorophenyl)-2,3,6,9-tetrahydro-7-methyl-, 2-[[(1,1-dimethylethoxy)carbonyl]amino]ethyl ester, 1,1,4,4-tetraoxide]
43	660	–	CC1=C(C(=O)OCCN(C)Cc2ccccc2)[C@@H](c2c(F)cccc2Cl)C2=C(CS(=O)(=O)CCS2(=O)=O)N1 (single isomer, unassigned) [Compound 2, 5H-1,4-Dithiepino[6,5-b]pyridine-8-carboxylic acid, 9-(2-chloro-6-fluorophenyl)-2,3,6,9-tetrahydro-7-methyl-2-[methyl(phenylmethyl)amino]ethyl ester 1,1,4,4-tetraoxide]
–	–	143	CC1=C(C(=O)OCCOC(=O)C(C)C)C(c2c(F)cccc2Cl)C2=C(CS(=O)(=O)CCS2(=O)=O)N1 (centres unmarked) [Compound 57]
